Numbering of substitutions follows the chain as printed.

The values below come from paper PMC7068051, “Thermal stability, ligand binding and allergenicity data of Mus m 1.0102 allergen and its cysteine mutants” (Data in Brief, 2020).

Common to all, as to test: direct fluorescence titration (ex […] nm, em […] nm), nonlinear regression
Format in all cases: binding

Assay [1] deals with T1, Mus m 1.0102 (Mus musculus, UniProt P11589, C156A).
T1 construct: gene Mup2; recombinant lipocalin allergen
T1 sequence (P11589 19-180 C156A): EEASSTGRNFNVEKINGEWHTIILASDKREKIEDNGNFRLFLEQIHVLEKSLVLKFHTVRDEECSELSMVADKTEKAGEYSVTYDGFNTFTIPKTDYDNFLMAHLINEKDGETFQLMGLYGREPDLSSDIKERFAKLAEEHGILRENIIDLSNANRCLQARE
To be noted: 20 nM protein, Tris-HCl 10 mM pH 7.2, 25 °C; hydrophobic pocket.

The target of assay [2] is T2, Mus m 1.0102 (Mus musculus, UniProt P11589, C156A/C175A).
T2 construct: gene Mup2; recombinant lipocalin allergen
T2 sequence (P11589 19-180 C156A/C175A): T1 sequence (P11589 19-180 C156A) with C157A
To be noted: 20 nM protein, Tris-HCl 10 mM pH 7.2, 25 °C; hydrophobic pocket.

In assay [3] the target is T3, Mus m 1.0102 (Mus musculus, UniProt P11589).
T3 construct: gene Mup2; recombinant lipocalin allergen
T3 sequence (P11589 19-180): T1 sequence (P11589 19-180 C156A) with A138C
The conditions noted are these: 20 nM protein, Tris-HCl 10 mM pH 7.2, 25 °C; hydrophobic pocket.

Assay [4] concerns the target T4, Mus m 1.0102 (Mus musculus, UniProt P11589, C175A).
T4 construct: gene Mup2; recombinant lipocalin allergen
T4 sequence (P11589 19-180 C175A): T1 sequence (P11589 19-180 C156A) with A138C, C157A

With `c1ccc(Nc2cccc3ccccc23)cc1` [N-Phenyl-1-naphthylamine], the Kd at Mus m 1.0102 [1] was found to be 33.8 ± 6.4 nM; at Mus m 1.0102 [2], 45.2 ± 4 nM; on Mus m 1.0102 [3] it was 25 ± 1.5 nM; on Mus m 1.0102 [4], 85.5 ± 13.7 nM.
